Measurements reported in PubChem BioAssay (NCI).
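Each compound was tested at five concentrations against cells in 96-well plates for 48 hours. The concentration for 50% growth inhibition is given as GI50. TGI: concentration producing complete growth inhibition.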

Columns and labels:
Experiment in all cases: NCI-60 cell line screen, 48 h
[1] = system: 786-0 renal
[2] = system: A498 renal
[3] = system: A549 NSCLC
[4] = system: ACHN renal
[5] = system: BT-549 breast
[6] = system: CAKI-1 renal
[7] = system: CCRF-CEM leukemia
[8] = system: COLO 205 colon
[9] = system: DU-145 prostate
[10] = system: EKVX NSCLC
[11] = system: HCC-2998 colon
[12] = system: HCT-116 colon
[13] = system: HCT-15 colon
[14] = system: HL-60(TB) leukemia
[15] = system: HOP-62 NSCLC
[16] = system: HOP-92 NSCLC
[17] = system: HS 578T breast
[18] = system: HT29 colon
[19] = system: IGROV1 ovarian
[20] = system: K-562 leukemia
[21] = system: KM12 colon
[22] = system: LOX IMVI melanoma
[23] = system: M14 melanoma
[24] = system: MALME-3M melanoma
[25] = system: MCF7 breast
[26] = system: MDA-MB-231 breast
[27] = system: MDA-MB-435
[28] = system: MOLT-4 leukemia
[29] = system: NCI-H226 lung
[30] = system: NCI-H23 lung
[31] = system: NCI-H460 lung
[32] = system: NCI-H522 lung
[33] = system: NCI/ADR-RES ovarian
[34] = system: OVCAR-3 ovarian
[35] = system: OVCAR-4 ovarian
[36] = system: OVCAR-5 ovarian
[37] = system: OVCAR-8 ovarian
[38] = system: PC-3 prostate
[39] = system: RPMI-8226 leukemia
[40] = system: RXF 393 renal
[41] = system: SF-268 CNS
[42] = system: SF-295 CNS
[43] = system: SF-539 CNS
[44] = system: SK-MEL-2 melanoma
[45] = system: SK-MEL-28 melanoma
[46] = system: SK-MEL-5 melanoma
[47] = system: SK-OV-3 ovarian
[48] = system: SN12C renal
[49] = system: SNB-75 CNS
[50] = system: SR leukemia
[51] = system: SW-620 colon
[52] = system: T-47D breast
[53] = system: TK-10 renal
[54] = system: U251 CNS
[55] = system: UACC-257 melanoma
[56] = system: UACC-62 melanoma
[57] = system: UO-31 renal

## FC(F)(F)c1cccc(-c2[nH]ncc2-c2nnnn2-c2ccccc2)c1
[1]
  GI50: 5.78 µM
  TGI: 22 µM
[2]
  GI50: 4.28 µM
  TGI: 17.8 µM
[3]
  GI50: 4.54 µM
  TGI: 84.9 µM
[4]
  GI50: 11.2 µM
  TGI: 24.5 µM
[5]
  GI50: 3.78 µM
  TGI: 13.9 µM
[6]
  GI50: 5.36 µM
  TGI: 27.7 µM
[7]
  GI50: 5.3 µM
  TGI: 22.9 µM
[8]
  GI50: 3.49 µM
  TGI: 13 µM
[9]
  GI50: 7.43 µM
  TGI: 21.5 µM
[10]
  GI50: 8.43 µM
  TGI: 29.7 µM
[11]
  GI50: 2.5 µM
  TGI: 11 µM
[12]
  GI50: 4.7 µM
  TGI: 19.4 µM
[13]
  GI50: 3.71 µM
  TGI: 16.3 µM
[14]
  GI50: 3.94 µM
  TGI: 8.86 µM
[15]
  GI50: 7.88 µM
  TGI: 23.4 µM
[16]
  TGI: 8.19 µM
[17]
  GI50: 4.85 µM
  TGI: 28.4 µM
[18]
  GI50: 2.99 µM
  TGI: 9.33 µM
[19]
  GI50: 3.96 µM
  TGI: 15.4 µM
[20]
  GI50: 3.3 µM
  TGI: 15.8 µM
[21]
  GI50: 4.08 µM
  TGI: 22.2 µM
[22]
  GI50: 6.41 µM
  TGI: 19.5 µM
[23]
  GI50: 3.21 µM
  TGI: 11.6 µM
[24]
  GI50: 3.66 µM
  TGI: 13.3 µM
[25]
  GI50: 3.3 µM
  TGI: 13.7 µM
[26]
  GI50: 3.2 µM
  TGI: 12.7 µM
[27]
  GI50: 1.86 µM
  TGI: 5.89 µM
[28]
  GI50: 4.79 µM
  TGI: 28.8 µM
[29]
  GI50: 13.2 µM
  TGI: 31.1 µM
[30]
  GI50: 5.86 µM
  TGI: 23.3 µM
[31]
  GI50: 3.32 µM
  TGI: 12.8 µM
[32]
  GI50: 4.58 µM
  TGI: 19 µM
[33]
  GI50: 3.17 µM
  TGI: 25.2 µM
[34]
  GI50: 2.97 µM
  TGI: 10.9 µM
[35]
  GI50: 11.7 µM
  TGI: 28.8 µM
[36]
  GI50: 10.6 µM
  TGI: 31.2 µM
[37]
  GI50: 7.77 µM
  TGI: 90.2 µM
[38]
  GI50: 6.3 µM
  TGI: 51.2 µM
[39]
  GI50: 3.12 µM
  TGI: 13.3 µM
[40]
  GI50: 2.91 µM
  TGI: 11.7 µM
[41]
  GI50: 7.69 µM
  TGI: 23.3 µM
[42]
  GI50: 2.49 µM
  TGI: 9.04 µM
[43]
  GI50: 6.79 µM
  TGI: 21 µM
[44]
  GI50: 12.8 µM
  TGI: 31 µM
[45]
  GI50: 5.6 µM
  TGI: 19.1 µM
[46]
  GI50: 3.01 µM
  TGI: 10.6 µM
[47]
  GI50: 6.05 µM
  TGI: 21.9 µM
[48]
  GI50: 9.76 µM
  TGI: 21.9 µM
[49]
  GI50: 4.81 µM
  TGI: 20.1 µM
[50]
  GI50: 1.94 µM
  TGI: 5.42 µM
[51]
  GI50: 3.23 µM
  TGI: 12.2 µM
[52]
  GI50: 4.23 µM
  TGI: 24.7 µM
[53]
  GI50: 6.6 µM
  TGI: 20 µM
[54]
  GI50: 4.69 µM
  TGI: 17.1 µM
[55]
  GI50: 11.4 µM
  TGI: 33.9 µM
[56]
  GI50: 4.22 µM
  TGI: 15.8 µM
[57]
  GI50: 10.7 µM
  TGI: 23.6 µM
